The values below come from US10000456B2, “Polycyclic compounds as lysophosphatidic acid receptor antagonists” (AMIRA PHARMACEUTICALS, INC., priority 2009, dated 2018).

One experiment deals with T1, human LPA1 (Homo sapiens, UniProt Q92633).
T1 construct: the full-length cDNA for human LPA1 was obtained by PCR of the reverse transcription reaction; expressed in transfected cells
In words: LPA1 calcium flux assay (HLPA1 Ca Flux). In kind it is cell-based. The note with it: CHO cells expressing human LPA1, stimulated with 10 nM LPA. On the procedure:
A 1.1 kb cDNA encoding the human LPA1 receptor was cloned from human lung. Human lung RNA (Clontech Laboratories, Inc. USA) was reverse transcribed using the RETROSCRIPT® kit (Ambion, Inc.) and the full-length cDNA for human LPA1 was obtained by PCR of the reverse transcription reaction. The nucleotide sequence of the cloned human LPA1 was determined by sequencing and confirmed to be identical to the published human LPA1 sequence (An et al., Biochem. Biophys. Res. Commun., 231:619 (1997). The cDNA was cloned into the pcDNA5/FRT expression plasmid and transfected in CHO cells using Lipofectamine 2000 (Invitrogen Corp., USA). Clones stably expressing human LPA1 were selected using hygromycin and identified as cells that show Ca-influx in response to LPA.
Human LPA1 or LPA3 expressing CHO cells are seeded at 20,000-45,000 cells per well in a 96-well poly-D-lysine coated plate one or two days before the assay. Prior to the assay, the cells are washed once with PBS and then cultured in serum-free media overnight. […] Cells are the stimulated by the addition of 10 nM LPA and intracellular Ca^2+ measured using the FLEXSTATION® 3 (Molecular Devices). IC50s are determined using GraphPad prism analysis of drug titration curves.

Experiment [1] concerns bleomycin-induced lung fibrosis. In words: Bleomycin-induced lung fibrosis model in mice. It is filed as in vivo. Particulars: acute setting (3 day). The text has this: Female C57Bl/6 mice (Harlan, 25-30 g) are housed 4 per cage, given free access to food and water and allowed to acclimate for at least 7 days prior to test initiation. After the habituation phase, mice are lightly anesthetized with isoflurane (5% in 100% O2) and administered with bleomycin sulfate (0.01-5 U/kg, Henry Schein) via intratracheal instillation (Cuzzocrea, S. et al., Am. J. Physiol. Lung. Cell. Mol. Physiol., 292(5):[…]-[…] (Epub Jan. 12, 2007)). Mice are returned to their cages and monitored daily for the duration of the experiment. Test compound or vehicle is delivered p.o., i.p. or s.c. daily. The route and frequency of dosing is based on previously determined pharmacokinetic properties. […] BALF is analyzed for concentrations of inflammatory, pro-fibrotic and tissue injury biomarkers including transforming growth factor 131, hyaluronic acid, tissue inhibitor of metalloproteinase-1, matrix matelloproteinase-7, connective tissue growth factor and lactate dehydrogenase activity, using commercially available ELISA. […] Total cell counts are then obtained using a HEMAVET® hematology system (Drew Scientific, Wayne, Pa.) and differential cells counts are determined using Shandon cytospin (Thermo Scientific, Waltham, Mass.). […] The data are plotted using GraphPad Prism and statistical differences between groups determined.

Experiment [2] concerns A2058 human melanoma cells. Description: LPA1 chemotaxis assay. In kind it is cell-based. The note with it: LPA 100 nM, read-out: IC50, inhibition of LPA-driven chemotaxis. As to the method: Chemotaxis of the A2058 human melanoma cells was measured using the Neuroprobe CHEMOTX® System plates ([…], 5.7 mm diameter sites). The filter sites were coated with 0.001% fibronectin (Sigma) in 20 mM Hepes, pH 7.4 and allowed to dry. A2058 cells were serum-starved for 24 hours, then harvested with Cell Stripper and resuspended in DMEM containing 0.1% fatty-acid-free bovine serum albumin (BSA) to a concentration of 1×10^6/ml. Cells were mixed with an equal volume of test compound (2×) in DMEM containing 0.1% fatty-acid-free BSA and incubated at 37° C. for 15 minutes. LPA (100 nM in DMEM containing 0.1% fatty-acid-free BSA) or vehicle was added to each well of the lower chamber and 50 μl of the cell suspension/test compound mix was applied to the upper portion of the CHEMOTX® plate. Plates were incubated at 37° C. for three hours and then the cells removed from the upper portion by rinsing with PBS and scraping. The filter was dried then stained with HEMA 3® Staining System (Fisher Scientific). The absorbance of the filter was read at 590 nm and IC50s were determined using SYMYX® Assay Explorer.

Experiment [3] concerns highly peritoneal metastatic pancreatic cancer cell line. The note with it: cited from earlier work.
A further experiment has as its system renal fibrosis. Particulars: compared with LPA1 (−/−) mice; cited from earlier work.

T1 sequence (Q92633 whole entry): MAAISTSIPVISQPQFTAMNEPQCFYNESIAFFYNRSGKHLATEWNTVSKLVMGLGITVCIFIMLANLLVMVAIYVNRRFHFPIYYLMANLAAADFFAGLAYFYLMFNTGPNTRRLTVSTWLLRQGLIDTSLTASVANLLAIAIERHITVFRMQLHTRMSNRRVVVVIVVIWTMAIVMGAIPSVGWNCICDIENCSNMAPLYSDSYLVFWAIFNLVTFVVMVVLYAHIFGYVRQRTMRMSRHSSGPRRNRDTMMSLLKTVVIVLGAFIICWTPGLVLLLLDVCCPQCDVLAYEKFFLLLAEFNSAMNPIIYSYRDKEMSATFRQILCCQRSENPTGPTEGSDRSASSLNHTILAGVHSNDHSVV

By IC50 is commonly meant the point on the concentration scale where inhibition reaches its midpoint. As to `Cc1noc(-c2ccc(-c3ccc(C4(C(=O)O)CC4)cc3)cc2)c1Nc1cccc(-c2cccc(C(F)(F)F)c2Cl)n1` [Compound 84, 1-(4′-{4-[6-(2-Chloro-3-trifluoromethyl-phenyl)-pyridin-2-ylamino]-3-methyl-isoxazol-5-yl}-biphenyl-4-yl)-cyclopropanecarboxylic acid], the IC50 on human LPA1 fell in the range of 300 to 1000 nM.
Consider `Cc1noc(-c2ccc(-c3ccc(C4(C(=O)O)CC4)cc3)cc2)c1C(O)c1cn(Cc2ccccc2)nn1` (single isomer, unassigned) [Compound 19, 1-(4′-{4-[(1-Benzyl-1H-[1,2,3]triazol-4-yl)-hydroxy-methyl]-3-methyl-isoxazol-5-yl}-biphenyl-4-yl)-cyclopropanecarboxylic acid], for which, in experiment [1], the “collagen concentration in broncheoalveolar lavage fluid (BALF)” value is reported as “significantly reduced” and the “total protein concentration in broncheoalveolar lavage fluid (BALF)” value is given as “significantly reduced”.
As to `Cc1noc(-c2ccc(-c3ccc(C4(C(=O)O)CC4)cc3)cc2)c1Nc1cncc(-c2ccccc2Cl)c1` [Compound 64, 1-(4′-{4-[5-(2-Chloro-phenyl)-pyridin-3-ylamino]-3-methyl-isoxazol-5-yl}-biphenyl-4-yl)-cyclopropanecarboxylic acid], in experiment [2], the IC50 was below 100 nM.
The same measure, in the same setting: the result for `Cc1noc(-c2ccc(-c3ccc(C4(C(=O)O)CC4)cc3)cc2)c1C(O)c1cccc(Cc2ccccc2)c1` (centres unmarked) [Compound 26, 1-(4′-{4-[(3-Benzyl-phenyl)-hydroxy-methyl]-3-methyl-isoxazol-5-yl}-biphenyl-4-yl)-cyclopropanecarboxylic acid] reads below 100 nM; that for `Cc1noc(-c2ccc(-c3ccc(C4(C(=O)O)CC4)cc3)cc2)c1Nc1nccc(-c2ccccc2)n1` [Compound 66, 1-{4′-[3-Methyl-4-(4-phenyl-pyrimidin-2-ylamino)-isoxazol-5-yl]-biphenyl-4-yl}-cyclopropanecarboxylic acid], below 100 nM.
Same read-out and setting: then `Cc1noc(-c2ccc(-c3ccc(C4(C(=O)O)CC4)cc3)cc2)c1Nc1cncc(-c2cccc(F)c2)c1` [Compound 59, 1-(4′-{4-[5-(3-Fluoro-phenyl)-pyridin-3-ylamino]-3-methyl-isoxazol-5-yl}-biphenyl-4-yl)-cyclopropanecarboxylic acid], with below 100 nM; and `Cc1noc(-c2ccc(-c3ccc(C4(C(=O)O)CC4)cc3)cc2)c1[C@@H](O)c1cn([C@H](C)c2ccccc2)nn1` [Compound 32, 1-[4′-(4-{(R)-Hydroxy-[1-((R)-1-phenyl-ethyl)-1H-[1,2,3]triazol-4-yl]-methyl}-3-methyl-isoxazol-5-yl)-biphenyl-4-yl]-cyclopropanecarboxylic acid], with below 100 nM.
The same measure, in the same setting: the result for `Cc1noc(-c2ccc(-c3ccc(C4(C(=O)O)CC4)cc3)cc2)c1Nc1cccc(-c2cccc(F)c2Cl)n1` [Compound 81, 1-(4′-{4-[6-(2-Chloro-3-fluoro-phenyl)-pyridin-2-ylamino]-3-methyl-isoxazol-5-yl}-biphenyl-4-yl)-cyclopropanecarboxylic acid] reads below 100 nM; that for `Cc1noc(-c2ccc(-c3ccc(C4(C(=O)O)CC4)cc3)cc2)c1Nc1cccc(Cc2ccccc2)n1` [Compound 38, 1-{4′-[4-(6-Benzyl-pyridin-2-ylamino)-3-methyl-isoxazol-5-yl]-biphenyl-4-yl}-cyclopropanecarboxylic acid], below 100 nM; that for `Cc1noc(-c2ccc(-c3ccc(C4(C(=O)O)CC4)cc3)cc2)c1Nc1cncc(-c2cccc(F)c2Cl)c1` [Compound 82, 1-(4′-{4-[5-(2-Chloro-3-fluoro-phenyl)-pyridin-3-ylamino]-3-methyl-isoxazol-5-yl}-biphenyl-4-yl)-cyclopropanecarboxylic acid], below 100 nM.
As for `Cc1noc(-c2ccc(CSCCC(=O)O)cc2)c1NC(=O)OC(C)c1ccccc1Cl` (centres unmarked) [Ki16425], in experiment [3], the “LPA-induced and ascites-induced invasion activity” value is “blocked”. For the same molecule, the “development of renal fibrosis in UUO mice” value in the experiment on renal fibrosis is given as “closely resembled the LPA1 (−/−) mice”.
Take `Cc1noc(-c2ccc(-c3ccc(C4(C(=O)O)CC4)cc3)cc2)c1C(O)c1cn(C(C)c2ccccc2)nn1` (centres unmarked) [Compound 23, 1-[4′-(4-{Hydroxy-[1-(1-phenyl-ethyl)-1H-[1,2,3]triazol-4-yl]-methyl}-3-methyl-isoxazol-5-yl)-biphenyl-4-yl]-cyclopropanecarboxylic acid]: the IC50 in experiment [2] is below 100 nM.
